Values of other authors as cited in patent US20190060287A1 (ADARE PHARMACEUTICALS, INC., priority 2017, published 2019).
Where two headings read alike, the source gives them in different places.

What was measured:
[1] = multiple dose controlled clinical studies

patients reporting that they had been drowsy during the 6 hour study (single dose 8 mg): 76% | patients reporting that they had been drowsy during the 6 hour study (single dose 16 mg): 92%
SMILES: Clc1ccc2nsnc2c1NC1=NCCN1 [tizanidine, Tizanidine]
patients reporting sedation as a secondary event ([1]; patients receiving any dose of tizanidine): 48% | cases in which the sedation was rated as severe ([1]; share of the sedation cases): 10%
